Numbers after ± are expanded uncertainties.
Assays:
[1] = Molar enthalpy of transition or fusion; details: Crystal; DSC
[2] = for viscosity / mass density: 101.33 kPa, Liquid; for viscosity: Falling or rolling sphere viscometry; for mass density: Vibrating tube method
[3] = activity coefficient (dimensionless); of the first substance listed, at infinite dilution; xn = mol fraction of the nth substance listed; details: 101.33 kPa, Liquid, Chromatography, x1 = 0

CCCCCCCCCCCCn1cc[n+](C)c1.O=S(=O)([N-]S(=O)(=O)C(F)(F)F)C(F)(F)F
Details	Molar enthalpy of transition or fusion [kcal/mol]
[1]	8.6 ± 0.287

[2]
Details	mass density [kg/m3]	viscosity [mPa·s]
298.15 K	1242.9 ± 2.9	125 ± 4
303.15 K	1238.8 ± 2.9	–
308.15 K	1234.6 ± 2.9	76.7 ± 1.6
313.15 K	1230.4 ± 2.9	–
318.15 K	1226.2 ± 2.9	52.7 ± 0.9
323.15 K	1222 ± 2.9	–
328.15 K	1217.8 ± 2.9	37 ± 0.6
333.15 K	1213.6 ± 2.9	–
338.15 K	1209.5 ± 2.9	26.6 ± 0.5
343.15 K	1205.3 ± 2.9	–
348.15 K	1201.2 ± 2.9	19.5 ± 0.3
353.15 K	1197.1 ± 2.9	–
358.15 K	1193 ± 2.8	14.7 ± 0.3
363.15 K	1188.9 ± 2.8	–
368.15 K	1184.9 ± 2.8	11.4 ± 0.2

Details	Normal melting temperature [°C]
[2], Crystal, DTA	19.2 ± 0.4

CCCCCCCCC [nonane] + CCCCCCCCCCCCn1cc[n+](C)c1.O=S(=O)([N-]S(=O)(=O)C(F)(F)F)C(F)(F)F
[3]
Details	activity coefficient
318.15 K	4.92 ± 0.34
328.15 K	4.97 ± 0.34
338.15 K	5.03 ± 0.34
348.15 K	5.08 ± 0.35
358.15 K	5.13 ± 0.35
368.15 K	5.17 ± 0.35

CC(C)CC(C)(C)C [2,2,4-trimethylpentane] + CCCCCCCCCCCCn1cc[n+](C)c1.O=S(=O)([N-]S(=O)(=O)C(F)(F)F)C(F)(F)F
[3]
Details	activity coefficient
318.15 K	3.59 ± 0.24
328.15 K	3.66 ± 0.25
338.15 K	3.72 ± 0.25
348.15 K	3.79 ± 0.26
358.15 K	3.85 ± 0.26
368.15 K	3.91 ± 0.27

C1CCCCCC1 [cycloheptane] + CCCCCCCCCCCCn1cc[n+](C)c1.O=S(=O)([N-]S(=O)(=O)C(F)(F)F)C(F)(F)F
[3]
Details	activity coefficient
318.15 K	2.43 ± 0.17
328.15 K	2.45 ± 0.17
338.15 K	2.47 ± 0.17
348.15 K	2.49 ± 0.17
358.15 K	2.5 ± 0.17
368.15 K	2.52 ± 0.17

C#CCCCCCC [1-octyne] + CCCCCCCCCCCCn1cc[n+](C)c1.O=S(=O)([N-]S(=O)(=O)C(F)(F)F)C(F)(F)F
[3]
Details	activity coefficient
318.15 K	1.74 ± 0.12
328.15 K	1.8 ± 0.12
338.15 K	1.87 ± 0.13
348.15 K	1.93 ± 0.13
358.15 K	1.99 ± 0.14
368.15 K	2.06 ± 0.14

c1ccncc1 [pyridine] + CCCCCCCCCCCCn1cc[n+](C)c1.O=S(=O)([N-]S(=O)(=O)C(F)(F)F)C(F)(F)F
[3]
Details	activity coefficient
318.15 K	0.387 ± 0.034
328.15 K	0.404 ± 0.034
338.15 K	0.42 ± 0.04
348.15 K	0.435 ± 0.035
358.15 K	0.451 ± 0.036
368.15 K	0.466 ± 0.036

CC#N [acetonitrile] + CCCCCCCCCCCCn1cc[n+](C)c1.O=S(=O)([N-]S(=O)(=O)C(F)(F)F)C(F)(F)F
[3]
Details	activity coefficient
318.15 K	0.508 ± 0.038
328.15 K	0.515 ± 0.038
338.15 K	0.524 ± 0.039
348.15 K	0.531 ± 0.039
358.15 K	0.539 ± 0.039
368.15 K	0.545 ± 0.04

CC(C)=O [acetone] + CCCCCCCCCCCCn1cc[n+](C)c1.O=S(=O)([N-]S(=O)(=O)C(F)(F)F)C(F)(F)F
[3]
Details	activity coefficient
318.15 K	0.353 ± 0.032
328.15 K	0.369 ± 0.033
338.15 K	0.386 ± 0.033
348.15 K	0.401 ± 0.034
358.15 K	0.417 ± 0.035
368.15 K	0.432 ± 0.035

CCCOCCC [dipropyl ether] + CCCCCCCCCCCCn1cc[n+](C)c1.O=S(=O)([N-]S(=O)(=O)C(F)(F)F)C(F)(F)F
[3]
Details	activity coefficient
318.15 K	1.67 ± 0.11
328.15 K	1.73 ± 0.12
338.15 K	1.79 ± 0.12
348.15 K	1.84 ± 0.12
358.15 K	1.89 ± 0.13
368.15 K	1.94 ± 0.13

c1ccccc1 [benzene] + CCCCCCCCCCCCn1cc[n+](C)c1.O=S(=O)([N-]S(=O)(=O)C(F)(F)F)C(F)(F)F
[3]
Details	activity coefficient
318.15 K	0.568 ± 0.041
328.15 K	0.594 ± 0.042
338.15 K	0.619 ± 0.043
348.15 K	0.644 ± 0.044
358.15 K	0.669 ± 0.045
368.15 K	0.694 ± 0.047

CO [methanol] + CCCCCCCCCCCCn1cc[n+](C)c1.O=S(=O)([N-]S(=O)(=O)C(F)(F)F)C(F)(F)F
[3]
Details	activity coefficient
318.15 K	1.29 ± 0.08
328.15 K	1.22 ± 0.08
338.15 K	1.15 ± 0.07
348.15 K	1.1 ± 0.07
358.15 K	1.05 ± 0.07
368.15 K	1.01 ± 0.06

O [water] + CCCCCCCCCCCCn1cc[n+](C)c1.O=S(=O)([N-]S(=O)(=O)C(F)(F)F)C(F)(F)F
[3]
Details	activity coefficient
318.15 K	4.49 ± 0.31
328.15 K	4.02 ± 0.27
338.15 K	3.64 ± 0.25
348.15 K	3.31 ± 0.23
358.15 K	3.03 ± 0.21
368.15 K	2.78 ± 0.19

CCC[N+](=O)[O-] [1-nitropropane] + CCCCCCCCCCCCn1cc[n+](C)c1.O=S(=O)([N-]S(=O)(=O)C(F)(F)F)C(F)(F)F
[3]
Details	activity coefficient
318.15 K	0.567 ± 0.041
328.15 K	0.582 ± 0.041
338.15 K	0.596 ± 0.042
348.15 K	0.609 ± 0.043
358.15 K	0.621 ± 0.043
368.15 K	0.634 ± 0.044

CC(C)CO [2-methyl-1-propanol] + CCCCCCCCCCCCn1cc[n+](C)c1.O=S(=O)([N-]S(=O)(=O)C(F)(F)F)C(F)(F)F
[3]
Details	activity coefficient
318.15 K	1.52 ± 0.1
328.15 K	1.42 ± 0.09
338.15 K	1.34 ± 0.09
348.15 K	1.26 ± 0.08
358.15 K	1.19 ± 0.08
368.15 K	1.13 ± 0.07

CC1CCCCC1 [methylcyclohexane] + CCCCCCCCCCCCn1cc[n+](C)c1.O=S(=O)([N-]S(=O)(=O)C(F)(F)F)C(F)(F)F
[3]
Details	activity coefficient
318.15 K	2.42 ± 0.16
328.15 K	2.46 ± 0.17
338.15 K	2.49 ± 0.17
348.15 K	2.52 ± 0.17
358.15 K	2.55 ± 0.17
368.15 K	2.58 ± 0.18

CC(C)OC(C)C [diisopropyl ether] + CCCCCCCCCCCCn1cc[n+](C)c1.O=S(=O)([N-]S(=O)(=O)C(F)(F)F)C(F)(F)F
[3]
Details	activity coefficient
318.15 K	1.65 ± 0.11
328.15 K	1.72 ± 0.12
338.15 K	1.79 ± 0.12
348.15 K	1.86 ± 0.13
358.15 K	1.93 ± 0.13
368.15 K	1.99 ± 0.14

Cc1cccc(C)c1 [1,3-dimethylbenzene] + CCCCCCCCCCCCn1cc[n+](C)c1.O=S(=O)([N-]S(=O)(=O)C(F)(F)F)C(F)(F)F
[3]
Details	activity coefficient
318.15 K	0.874 ± 0.056
328.15 K	0.918 ± 0.058
338.15 K	0.96 ± 0.06
348.15 K	1 ± 0.06
358.15 K	1.04 ± 0.07
368.15 K	1.09 ± 0.07

CCCCCO [pentan-1-ol] + CCCCCCCCCCCCn1cc[n+](C)c1.O=S(=O)([N-]S(=O)(=O)C(F)(F)F)C(F)(F)F
[3]
Details	activity coefficient
318.15 K	1.52 ± 0.1
328.15 K	1.46 ± 0.1
338.15 K	1.4 ± 0.09
348.15 K	1.35 ± 0.09
358.15 K	1.3 ± 0.08
368.15 K	1.26 ± 0.08

C#CCCCC [1-hexyne] + CCCCCCCCCCCCn1cc[n+](C)c1.O=S(=O)([N-]S(=O)(=O)C(F)(F)F)C(F)(F)F
[3]
Details	activity coefficient
318.15 K	1.25 ± 0.08
328.15 K	1.3 ± 0.08
338.15 K	1.35 ± 0.09
348.15 K	1.4 ± 0.09
358.15 K	1.45 ± 0.1
368.15 K	1.49 ± 0.1

CC(C)c1ccccc1 [isopropylbenzene] + CCCCCCCCCCCCn1cc[n+](C)c1.O=S(=O)([N-]S(=O)(=O)C(F)(F)F)C(F)(F)F
[3]
Details	activity coefficient
318.15 K	1.15 ± 0.07
328.15 K	1.2 ± 0.08
338.15 K	1.24 ± 0.08
348.15 K	1.28 ± 0.08
358.15 K	1.32 ± 0.09
368.15 K	1.36 ± 0.09

CCCC(C)=O [pentan-2-one] + CCCCCCCCCCCCn1cc[n+](C)c1.O=S(=O)([N-]S(=O)(=O)C(F)(F)F)C(F)(F)F
[3]
Details	activity coefficient
318.15 K	0.421 ± 0.035
328.15 K	0.445 ± 0.036
338.15 K	0.468 ± 0.037
348.15 K	0.492 ± 0.037
358.15 K	0.516 ± 0.038
368.15 K	0.539 ± 0.039

CCC(=O)OC [methyl propanoate] + CCCCCCCCCCCCn1cc[n+](C)c1.O=S(=O)([N-]S(=O)(=O)C(F)(F)F)C(F)(F)F
[3]
Details	activity coefficient
318.15 K	0.531 ± 0.039
328.15 K	0.557 ± 0.04
338.15 K	0.583 ± 0.041
348.15 K	0.608 ± 0.043
358.15 K	0.634 ± 0.044
368.15 K	0.659 ± 0.045

C=CCCCC [hex-1-ene] + CCCCCCCCCCCCn1cc[n+](C)c1.O=S(=O)([N-]S(=O)(=O)C(F)(F)F)C(F)(F)F
[3]
Details	activity coefficient
318.15 K	2.15 ± 0.15
328.15 K	2.2 ± 0.15
338.15 K	2.25 ± 0.15
348.15 K	2.29 ± 0.16
358.15 K	2.34 ± 0.16
368.15 K	2.38 ± 0.16

CCC(C)(C)OC [2-methoxy-2-methylbutane] + CCCCCCCCCCCCn1cc[n+](C)c1.O=S(=O)([N-]S(=O)(=O)C(F)(F)F)C(F)(F)F
[3]
Details	activity coefficient
318.15 K	1.11 ± 0.07
328.15 K	1.17 ± 0.07
338.15 K	1.23 ± 0.08
348.15 K	1.29 ± 0.08
358.15 K	1.35 ± 0.09
368.15 K	1.4 ± 0.09

C1CCCCCCC1 [cyclooctane] + CCCCCCCCCCCCn1cc[n+](C)c1.O=S(=O)([N-]S(=O)(=O)C(F)(F)F)C(F)(F)F
[3]
Details	activity coefficient
318.15 K	2.8 ± 0.19
328.15 K	2.82 ± 0.19
338.15 K	2.83 ± 0.19
348.15 K	2.84 ± 0.19
358.15 K	2.85 ± 0.19
368.15 K	2.86 ± 0.19

COC(C)(C)C [2-methoxy-2-methylpropane] + CCCCCCCCCCCCn1cc[n+](C)c1.O=S(=O)([N-]S(=O)(=O)C(F)(F)F)C(F)(F)F
[3]
Details	activity coefficient
318.15 K	0.93 ± 0.059
328.15 K	0.985 ± 0.062
338.15 K	1.04 ± 0.07
348.15 K	1.09 ± 0.07
358.15 K	1.14 ± 0.07
368.15 K	1.2 ± 0.08

CCCCO [butan-1-ol] + CCCCCCCCCCCCn1cc[n+](C)c1.O=S(=O)([N-]S(=O)(=O)C(F)(F)F)C(F)(F)F
[3]
Details	activity coefficient
318.15 K	1.55 ± 0.1
328.15 K	1.46 ± 0.1
338.15 K	1.38 ± 0.09
348.15 K	1.31 ± 0.09
358.15 K	1.24 ± 0.08
368.15 K	1.19 ± 0.08

Source: the NIST ThermoML archive (doi:10.1016/j.jct.2016.08.008)
